86 compounds from a melting point compilation (Tetko et al.) can be followed below.

The compound `CC(=O)c1ccc(SCC(=O)O)c(F)c1` yielded a melting point of 140 to 142 °C.
In the case of `C#CCOc1ccc(C(=O)O)cc1` it was 216 to 218 °C; in that of `COC(=O)C(=O)CC(=O)c1ccc(Cl)s1`, 103 to 105 °C.
For the compound `O=C(O)C1(Cc2ccc(Cl)cc2)CCCC1`, the melting point is 71 to 73 °C.
In the case of `Cc1cc(N)c2cccnc2c1C` it was 124 to 126 °C.
`Nc1nc(-c2ccccc2Cl)c(-c2ccccc2Cl)s1` showed a melting point of 198 to 200 °C.
The compound `NNC(=O)c1ccc(Cl)cc1O` yielded a melting point of 209 to 211 °C.
In the case of `NC(CCO)c1ccc(F)cc1` (stereo unspecified) it was 67 to 69 °C; in that of `NS(=O)(=O)C=Cc1ccc(F)cc1`, 148 to 150 °C.
On to `O=C(CCl)c1ccc(F)c(Cl)c1`, for which the melting point fell in the range of 37 to 39 °C.
The compound `CC(C)(C)Oc1c(F)cc(N)cc1F` gave a melting point of 99 to 101 °C.
In the case of `CC(=O)c1ccc(OC2CCCCC2)cc1` it was 74 to 76 °C; in that of `COc1nc(N2CCNCC2)ncc1Br`, 89 to 91 °C.
On to `O=C(O)C(Sc1cc(F)ccc1F)c1ccccc1` (stereo unspecified), for which the melting point was in the range of 106 to 108 °C.
In turn, `O=C(O)c1cccc(NC(=O)C2Cc3ccccc3O2)c1` (stereo unspecified) showed a melting point of 252 to 254 °C.
In the case of `COc1cc(/C=C(/C#N)C(=O)O)ccc1O` it was 199 to 201 °C; in that of `CCc1ncncc1C(=O)O`, 155 to 157 °C; in that of `O=C(O)c1oc2ccccc2c1CSc1ccc(Cl)cc1`, 158 to 160 °C.
The compound `CCc1c(C(=O)O)cnn1C(C)(C)C` showed a melting point of 133 to 135 °C.
With `NC(=O)CCOc1ccc(N)cc1`, the melting point lay within 110 to 112 °C.
In the case of `O=C(O)Cn1c(=O)[nH]c2ccccc21` it was 247 to 249 °C; in that of `NC(=O)c1cc(F)ccc1N`, 143 to 145 °C.
In the case of `O=C(O)CN1CC(=O)Nc2ccccc21` it was 218 to 220 °C.
In the case of `O=C(CCl)Nc1ccc(F)c(F)c1` it was 106 to 108 °C; in that of `Clc1ccnc2[nH]ccc12`, 176 to 181 °C; in that of `Nc1ccc(OCc2ccco2)c(Cl)c1`, 72 to 74 °C.
For `Cc1cc(C)c2cc(C(=O)O)[nH]c2c1C`, the melting point was 227 to 229 °C.
`O=C(Nc1cnccn1)c1ccc(I)cc1` came in with a melting point of 196 to 198 °C.
In turn, `O=C(O)c1cnc2c(c1)c(=O)[nH]c(=O)n2Cc1ccccc1` returned a melting point of 278 to 280 °C.
In the case of `O=C(O)C(NCC(F)(F)F)c1cc(Br)cs1` (stereo unspecified) it was 178 to 180 °C.
Compound `CS(=O)(=O)NCc1ccc(C(=O)O)o1` yielded a melting point of 139 to 141 °C.
Turning to `Cc1ccc(N)c(-c2nc(C3CC3)n[nH]2)c1`, the melting point was 205 to 207 °C.
In the case of `Nn1c(S)nnc1Cc1ccccc1` it was 179 to 181 °C; in that of `CCCCOc1ccc(-c2nnc(CCl)o2)cc1`, 77 to 79 °C.
In the case of `COc1ccc(-c2nn(CCC#N)cc2/C=C(/C#N)C(=O)O)cc1` it was 212 to 214 °C.
`O=C(CCl)NCCOc1cccc(C(F)(F)F)c1` came in with a melting point of 43 to 45 °C.
With `CC(C)(C)OC(=O)N1CCc2nc(N)sc2C1`, the melting point was 226 to 228 °C.
Consider `O=C(O)C1(c2cccc(C(F)(F)F)c2)CCC1`, for which the melting point lay within 92 to 94 °C.
Regarding `Cc1ccc(C(=O)O)c(Br)c1`, the melting point lay within 143 to 147 °C.
In the case of `CC(C)C(N)c1nnc2ccccn12` (stereo unspecified) it was 116 to 118 °C; in that of `CN(C)S(=O)(=O)c1c[nH]c(C(=O)O)c1`, 197 to 199 °C; in that of `CC(C)(CN)S(=O)(=O)c1ccc(Br)cc1`, 74 to 76 °C.
In the case of `CC1(c2ccccc2)NC(=O)N(N)C1=O` (stereo unspecified) it was 169 to 171 °C.
Compound `CCOc1cn(-c2ccccc2)nc1C(=O)O` gave a melting point of 142 to 144 °C.
On to `CCOc1ccc(OCc2ccc(C(=O)NN)cc2)cc1`, for which the melting point lay in the range of 127 to 129 °C.
`CC(Cc1ccc(Cl)cc1)NC(=O)OC(C)(C)C` (stereo unspecified) yielded a melting point of 93 to 95 °C.
In the case of `CCNc1nc(S)nc2ccccc12` it was 283 to 285 °C; in that of `O=C(CO)Nc1cccc([N+](=O)[O-])c1`, 182 to 184 °C; in that of `Cc1cccc(C)c1Nc1nnc(SCC(=O)O)s1`, 207 to 209 °C.
In the case of `Cc1cc(C(=O)O)ccc1I` it was 218 to 220 °C.
Consider `C#Cc1c(F)cccc1F`, for which the melting point was 34 to 36 °C.
The compound `NS(=O)(=O)c1nc2ccccc2s1` displayed a melting point of 177 to 179 °C.
In the case of `Nc1nnc(-c2ccco2)s1` it was 250 to 252 °C; in that of `CC(C)(C)OC(=O)NCC#N`, 53 to 57 °C.
In the case of `CCc1nnc2ccc(Cl)nn12`, the melting point lay in the range of 100 to 102 °C.
In the case of `O=c1[nH]cnc2scc(-c3ccc(F)cc3)c12` it was 231 to 233 °C.
In the case of `O=C(O)CCNc1ccccn1` it was 169 to 171 °C.
In the case of `Cc1nc2nc(N)nn2c(C)c1CC(=O)O` it was 260 to 264 °C; in that of `Nc1cc(NC(=O)c2ccccc2I)ccc1Cl`, 189 to 191 °C; in that of `CC(=O)c1c[nH]c(C(=O)N2CCCC(CO)C2)c1` (stereo unspecified), 146 to 148 °C.
Consider `CCNCC(=O)Nc1ccc(OC)cc1`, for which the melting point was in the range of 88 to 90 °C.
In the case of `CC1Oc2c(C(=O)O)cccc2C1C` (stereo unspecified) it was 96 to 100 °C.
For `Cc1c(N)cccc1COc1ccccc1`, the melting point fell in the range of 94 to 96 °C.
With `O=C(O)C1CC(=O)N(c2cccc(C(F)(F)F)c2)C1` (stereo unspecified), the melting point lay in the range of 102 to 104 °C.
In the case of `NC(=S)Nc1ccc(OC(F)(F)F)cc1` it was 136 to 138 °C; in that of `COc1cc(CC#N)c(Br)cc1OC(F)F`, 80 to 82 °C; in that of `O=C1C=CC=NC1=C(O)Nc1cnccn1`, 156 to 158 °C.
In the case of `O=C(NC(CO)C(=O)O)c1ccccc1` (stereo unspecified) it was 159 to 161 °C; in that of `O=C(O)c1cnn2c1NCCC2`, 141 to 143 °C.
The compound `Nc1cccc(-c2noc(C3CC3)n2)c1` came in with a melting point of 69 to 71 °C.
In the case of `Cc1nn(C2CCS(=O)(=O)C2)c(N2CCCCC2)c1C=O` (stereo unspecified) it was 86 to 88 °C; in that of `CC(C)(O)CN1CCN(C(=O)OC(C)(C)C)CC1`, 33 to 35 °C.
`O=C(O)CCCC(=O)c1ccc(Cl)c(Cl)c1` showed a melting point of 140 to 142 °C.
On to `CSCCC(NS(=O)(=O)c1ccc2c(c1)OCCO2)C(=O)O` (stereo unspecified), for which the melting point fell in the range of 93 to 96 °C.
Take `Cc1ccc(NS(=O)(=O)c2cc([N+](=O)[O-])ccc2NN)c(C)c1`: the melting point fell in the range of 165 to 167 °C.
On to `Cc1ccn2c(N)nnc2c1`, for which the melting point was 287 to 289 °C.
In the case of `Cc1ccc(Sc2ccc(Cl)cc2N)c(C)c1` it was 86 to 88 °C; in that of `CC(=O)Nc1cccc(CCl)c1`, 83 to 85 °C.
`O=C(CCCl)N(c1ccccc1)C1C=CS(=O)(=O)C1` (stereo unspecified) gave a melting point of 122 to 124 °C.
`O=C(O)CCN1C(=O)c2ccccc2S1(=O)=O` had a melting point of 164 to 166 °C.
In the case of `COc1ccc2ccc(-c3nn(-c4ccccc4)cc3C(=O)O)cc2c1` it was 254 to 256 °C.
In the case of `Cc1c(NCC(C)(C)C)cccc1C(=O)O` it was 135 to 137 °C; in that of `N#CCC(=O)c1cc(Cl)cc(Cl)c1`, 139 to 141 °C.
In the case of `CC(=O)Oc1ccc(CCl)cc1` it was 29 to 31 °C.
With `Cc1c(Cl)cccc1NC(=O)CCl`, the melting point was 71 to 74 °C.
For `CSc1cc2c(cc1C=O)OCCO2`, the melting point lay in the range of 112 to 114 °C.
